Assay results as given in PubChem BioAssay (NCI).
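Values below derive from 48-hour exposures of cells grown in 96-well plates, with endpoints linearly interpolated between the two concentrations bracketing the appropriate inhibition level. Here, GI50 denotes the concentration required for 50% inhibition of growth. The concentration for full growth arrest is given as TGI.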

How the values were obtained:
Experiment in all cases: NCI anticancer screen, dose series, 48 h
786-0 renal = system: 786-0 renal
A498 renal = system: A498 renal
A549 NSCLC = system: A549 NSCLC
ACHN renal = system: ACHN renal
CAKI-1 renal = system: CAKI-1 renal
CCRF-CEM leukemia = system: CCRF-CEM leukemia
COLO 205 colon = system: COLO 205 colon
DLD-1 colon = system: DLD-1 colon
DMS 273 small cell lung = system: DMS 273 small cell lung
EKVX NSCLC = system: EKVX NSCLC
HCC-2998 colon = system: HCC-2998 colon
HCT-116 colon = system: HCT-116 colon
HCT-15 colon = system: HCT-15 colon
HL-60(TB) leukemia = system: HL-60(TB) leukemia
HOP-18 NSCLC = system: HOP-18 NSCLC
HOP-62 NSCLC = system: HOP-62 NSCLC
HT29 colon = system: HT29 colon
IGROV1 ovarian = system: IGROV1 ovarian
K-562 leukemia = system: K-562 leukemia
KM12 colon = system: KM12 colon
KM20L2 colon = system: KM20L2 colon
LOX IMVI melanoma = system: LOX IMVI melanoma
LXFL 529 NSCLC = system: LXFL 529 NSCLC
M14 melanoma = system: M14 melanoma
M19-MEL melanoma = system: M19-MEL melanoma
MALME-3M melanoma = system: MALME-3M melanoma
MOLT-4 leukemia = system: MOLT-4 leukemia
NCI-H226 lung = system: NCI-H226 lung
NCI-H23 lung = system: NCI-H23 lung
NCI-H460 lung = system: NCI-H460 lung
NCI-H522 lung = system: NCI-H522 lung
OVCAR-3 ovarian = system: OVCAR-3 ovarian
OVCAR-4 ovarian = system: OVCAR-4 ovarian
OVCAR-5 ovarian = system: OVCAR-5 ovarian
OVCAR-8 ovarian = system: OVCAR-8 ovarian
RPMI-8226 leukemia = system: RPMI-8226 leukemia
RXF 393 renal = system: RXF 393 renal
SF-268 CNS = system: SF-268 CNS
SF-295 CNS = system: SF-295 CNS
SF-539 CNS = system: SF-539 CNS
SK-MEL-2 melanoma = system: SK-MEL-2 melanoma
SK-MEL-28 melanoma = system: SK-MEL-28 melanoma
SK-MEL-5 melanoma = system: SK-MEL-5 melanoma
SK-OV-3 ovarian = system: SK-OV-3 ovarian
SN12C renal = system: SN12C renal
SNB-19 CNS = system: SNB-19 CNS
SNB-75 CNS = system: SNB-75 CNS
SNB-78 CNS = system: SNB-78 CNS
SW-620 colon = system: SW-620 colon
TK-10 renal = system: TK-10 renal
U251 CNS = system: U251 CNS
UACC-257 melanoma = system: UACC-257 melanoma
UACC-62 melanoma = system: UACC-62 melanoma
UO-31 renal = system: UO-31 renal
DMS 114 small cell lung = system: DMS 114 small cell lung
HOP-92 NSCLC = system: HOP-92 NSCLC
SR leukemia = system: SR leukemia

NC1CCCCC1N.O=C([O-])c1cc(S(=O)(=O)Nc2cc(S(=O)(=O)[O-])cc3cc(S(=O)(=O)[O-])cc(O)c23)ccc1[O-].[Pt+4]
GI50 (786-0 renal): > 100 µM | TGI (786-0 renal): > 100 µM | GI50 (A498 renal): > 100 µM | TGI (A498 renal): > 100 µM | GI50 (A549 NSCLC): 61.6 µM | TGI (A549 NSCLC): > 100 µM | GI50 (ACHN renal): > 100 µM | TGI (ACHN renal): > 100 µM | GI50 (CAKI-1 renal): > 100 µM | TGI (CAKI-1 renal): > 100 µM | GI50 (CCRF-CEM leukemia): > 100 µM | TGI (CCRF-CEM leukemia): > 100 µM | GI50 (COLO 205 colon): > 100 µM | TGI (COLO 205 colon): > 100 µM | GI50 (DLD-1 colon): > 100 µM | TGI (DLD-1 colon): > 100 µM | GI50 (DMS 273 small cell lung): > 100 µM | TGI (DMS 273 small cell lung): > 100 µM | GI50 (EKVX NSCLC): > 100 µM | TGI (EKVX NSCLC): > 100 µM | GI50 (HCC-2998 colon): > 100 µM | TGI (HCC-2998 colon): > 100 µM | GI50 (HCT-116 colon): > 100 µM | TGI (HCT-116 colon): > 100 µM | GI50 (HCT-15 colon): > 100 µM | TGI (HCT-15 colon): > 100 µM | GI50 (HL-60(TB) leukemia): 89.8 µM | TGI (HL-60(TB) leukemia): > 100 µM | GI50 (HOP-18 NSCLC): > 100 µM | TGI (HOP-18 NSCLC): > 100 µM | GI50 (HOP-62 NSCLC): > 100 µM | TGI (HOP-62 NSCLC): > 100 µM | GI50 (HT29 colon): > 100 µM | TGI (HT29 colon): > 100 µM | GI50 (IGROV1 ovarian): > 100 µM | TGI (IGROV1 ovarian): > 100 µM | GI50 (K-562 leukemia): > 100 µM | TGI (K-562 leukemia): > 100 µM | GI50 (KM12 colon): > 100 µM | TGI (KM12 colon): > 100 µM | GI50 (KM20L2 colon): > 100 µM | TGI (KM20L2 colon): > 100 µM | GI50 (LOX IMVI melanoma): > 100 µM | TGI (LOX IMVI melanoma): > 100 µM | GI50 (LXFL 529 NSCLC): > 100 µM | TGI (LXFL 529 NSCLC): > 100 µM | GI50 (M14 melanoma): > 100 µM | TGI (M14 melanoma): > 100 µM | GI50 (M19-MEL melanoma): > 100 µM | TGI (M19-MEL melanoma): > 100 µM | GI50 (MALME-3M melanoma): 63.5 µM | TGI (MALME-3M melanoma): > 100 µM | GI50 (MOLT-4 leukemia): > 100 µM | TGI (MOLT-4 leukemia): > 100 µM | GI50 (NCI-H226 lung): > 100 µM | TGI (NCI-H226 lung): > 100 µM | GI50 (NCI-H23 lung): > 100 µM | TGI (NCI-H23 lung): > 100 µM | GI50 (NCI-H460 lung): 41.8 µM | TGI (NCI-H460 lung): > 100 µM | GI50 (NCI-H522 lung): > 100 µM | TGI (NCI-H522 lung): > 100 µM | GI50 (OVCAR-3 ovarian): > 100 µM | TGI (OVCAR-3 ovarian): > 100 µM | GI50 (OVCAR-4 ovarian): > 100 µM | TGI (OVCAR-4 ovarian): > 100 µM | GI50 (OVCAR-5 ovarian): > 100 µM | TGI (OVCAR-5 ovarian): > 100 µM | GI50 (OVCAR-8 ovarian): > 100 µM | TGI (OVCAR-8 ovarian): > 100 µM | GI50 (RPMI-8226 leukemia): 89.5 µM | TGI (RPMI-8226 leukemia): > 100 µM | GI50 (RXF 393 renal): > 100 µM | TGI (RXF 393 renal): > 100 µM | GI50 (SF-268 CNS): > 100 µM | TGI (SF-268 CNS): > 100 µM | GI50 (SF-295 CNS): > 100 µM | TGI (SF-295 CNS): > 100 µM | GI50 (SF-539 CNS): > 100 µM | TGI (SF-539 CNS): > 100 µM | GI50 (SK-MEL-2 melanoma): > 100 µM | TGI (SK-MEL-2 melanoma): > 100 µM | GI50 (SK-MEL-28 melanoma): > 100 µM | TGI (SK-MEL-28 melanoma): > 100 µM | GI50 (SK-MEL-5 melanoma): 88.7 µM | TGI (SK-MEL-5 melanoma): > 100 µM | GI50 (SK-OV-3 ovarian): > 100 µM | TGI (SK-OV-3 ovarian): > 100 µM | GI50 (SN12C renal): > 100 µM | TGI (SN12C renal): > 100 µM | GI50 (SNB-19 CNS): > 100 µM | TGI (SNB-19 CNS): > 100 µM | GI50 (SNB-75 CNS): > 100 µM | TGI (SNB-75 CNS): > 100 µM | GI50 (SNB-78 CNS): > 100 µM | TGI (SNB-78 CNS): > 100 µM | GI50 (SW-620 colon): > 100 µM | TGI (SW-620 colon): > 100 µM | GI50 (TK-10 renal): > 100 µM | TGI (TK-10 renal): > 100 µM | GI50 (U251 CNS): > 100 µM | TGI (U251 CNS): > 100 µM | GI50 (UACC-257 melanoma): > 100 µM | TGI (UACC-257 melanoma): > 100 µM | GI50 (UACC-62 melanoma): > 100 µM | TGI (UACC-62 melanoma): > 100 µM | GI50 (UO-31 renal): > 100 µM | TGI (UO-31 renal): > 100 µM

CN=c1ss/c(=N\C(=S)N(C)C)n1-c1ccccc1
TGI (786-0 renal): > 100 µM | TGI (A498 renal): > 100 µM | TGI (A549 NSCLC): > 100 µM | TGI (ACHN renal): > 100 µM | TGI (CAKI-1 renal): > 100 µM | TGI (CCRF-CEM leukemia): > 100 µM | TGI (COLO 205 colon): > 100 µM | TGI (DLD-1 colon): > 100 µM | TGI (DMS 114 small cell lung): > 100 µM | TGI (DMS 273 small cell lung): > 100 µM | TGI (EKVX NSCLC): > 100 µM | TGI (HCC-2998 colon): > 100 µM | TGI (HCT-116 colon): > 100 µM | TGI (HCT-15 colon): > 100 µM | TGI (HL-60(TB) leukemia): > 100 µM | TGI (HOP-18 NSCLC): > 100 µM | TGI (HOP-62 NSCLC): > 100 µM | TGI (HOP-92 NSCLC): > 100 µM | TGI (HT29 colon): > 31.6 µM | TGI (IGROV1 ovarian): > 100 µM | TGI (K-562 leukemia): > 100 µM | TGI (KM12 colon): > 100 µM | TGI (KM20L2 colon): > 100 µM | TGI (LOX IMVI melanoma): > 100 µM | TGI (LXFL 529 NSCLC): > 100 µM | TGI (M14 melanoma): > 100 µM | TGI (M19-MEL melanoma): > 100 µM | TGI (MALME-3M melanoma): > 100 µM | TGI (MOLT-4 leukemia): > 100 µM | TGI (NCI-H226 lung): > 100 µM | TGI (NCI-H23 lung): > 100 µM | TGI (NCI-H460 lung): > 100 µM | TGI (NCI-H522 lung): > 28.5 µM | TGI (OVCAR-3 ovarian): > 100 µM | TGI (OVCAR-4 ovarian): > 100 µM | TGI (OVCAR-5 ovarian): > 100 µM | TGI (OVCAR-8 ovarian): > 100 µM | TGI (RPMI-8226 leukemia): > 100 µM | TGI (RXF 393 renal): > 82.1 µM | TGI (SF-268 CNS): > 100 µM | TGI (SF-295 CNS): > 100 µM | TGI (SF-539 CNS): > 100 µM | TGI (SK-MEL-2 melanoma): > 100 µM | TGI (SK-MEL-28 melanoma): > 100 µM | TGI (SK-MEL-5 melanoma): > 100 µM | TGI (SK-OV-3 ovarian): > 100 µM | TGI (SN12C renal): > 100 µM | TGI (SNB-19 CNS): > 100 µM | TGI (SNB-75 CNS): 42.6 µM | TGI (SNB-78 CNS): > 100 µM | TGI (SR leukemia): > 100 µM | TGI (SW-620 colon): > 100 µM | TGI (TK-10 renal): > 100 µM | TGI (U251 CNS): > 100 µM | TGI (UACC-257 melanoma): > 100 µM | TGI (UACC-62 melanoma): > 100 µM | TGI (UO-31 renal): > 100 µM
